Test systems include U251 CNS; PC-3 prostate; SK-OV-3 ovarian; SK-MEL-28 melanoma; SF-539 CNS; A498 renal; TK-10 renal; CAKI-1 renal; SK-MEL-5 melanoma; OVCAR-5 ovarian.
Holding throughout (assay): NCI anticancer screen, dose series, 48 h

These results are taken from PubChem BioAssay (NCI).

SMILES strings stand for the structures.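 Cultured in 96-well plates, cells were exposed to test compound for 48 hours across five concentrations. GI50: concentration for 50% inhibition of growth. TGI denotes the concentration required for complete inhibition of growth.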 A value given as a limit tells only on which side of the number the result lay.

Turning to `NC(N)=N/N=C/c1c(-c2ccc([N+](=O)[O-])cc2)nc2sccn12`, the TGI came out at 2.95 µM with U251 CNS; 2.93 µM in the test on PC-3 prostate; 3.35 µM with SK-OV-3 ovarian; 3.74 µM in the test with SK-MEL-28 melanoma; 3.34 µM in the test on SF-539 CNS; 3.21 µM in the test on A498 renal. Besides, the TGI in the test on TK-10 renal came to 3.22 µM; with CAKI-1 renal, 6.93 µM; with SK-MEL-5 melanoma, 7.98 µM; in the test on OVCAR-5 ovarian, 3.11 µM.

Regarding `OCC1OC(n2cnc3cccnc32)CC1O` (stereo unspecified), the TGI with U251 CNS, in the test on PC-3 prostate, in the test on SK-MEL-28 melanoma, with SF-539 CNS, in the test with A498 renal and with TK-10 renal was more than 100 µM throughout. The TGI in the test on CAKI-1 renal, in the test on SK-MEL-5 melanoma and in the test on OVCAR-5 ovarian was more than 100 µM each time.

Turning to `CCOC(=O)c1ccc2nc(NC(=O)COC(=O)CSc3nc(C)cc(C)n3)sc2c1`, the TGI was more than 100 µM in the test on U251 CNS; more than 100 µM with PC-3 prostate; more than 100 µM in the test with SK-OV-3 ovarian; more than 100 µM in the test with SK-MEL-28 melanoma; 80.6 µM in the test with SF-539 CNS; more than 100 µM in the test on A498 renal. The TGI in the test on TK-10 renal is more than 100 µM; in the test on CAKI-1 renal it was more than 100 µM; in the test on SK-MEL-5 melanoma, more than 100 µM; in the test on OVCAR-5 ovarian, 86.1 µM.

For the molecule `O=C1c2[nH]cc(CN3CCNCC3)c2C(=O)c2c1c(O)c1ccccc1c2O`, the GI50 with PC-3 prostate was 1.83 µM; with SK-OV-3 ovarian, 5.76 µM; in the test with SK-MEL-28 melanoma, 1.62 µM; in the test with SF-539 CNS, 1.85 µM; in the test on A498 renal, 1.01 µM; in the test on TK-10 renal, 6.5 µM. For the same molecule, the GI50 with CAKI-1 renal is 2.21 µM; with SK-MEL-5 melanoma it was 1.64 µM; in the test with OVCAR-5 ovarian it was 1.86 µM. For the same molecule, the TGI with PC-3 prostate worked out at 4.41 µM; with SK-OV-3 ovarian, 27.7 µM; with SK-MEL-28 melanoma, 3.6 µM; in the test with SF-539 CNS it was 3.31 µM; in the test with A498 renal it was 2.38 µM; with TK-10 renal, 12.2 µM. Further, the figures for the TGI with CAKI-1 renal, in the test with SK-MEL-5 melanoma and in the test with OVCAR-5 ovarian were 5.94 µM, 3.14 µM and 4.13 µM, respectively.

In the case of `COC(=O)C(/C(=N/NC(=O)c1ccncc1)C(=O)Nc1ccccc1OC)c1nc2ccc(Cl)cc2[nH]c1=O` (stereo unspecified), the TGI in the test on U251 CNS, with PC-3 prostate, in the test on SK-OV-3 ovarian, in the test with SK-MEL-28 melanoma, with SF-539 CNS and in the test with A498 renal was more than 100 µM each time. Besides, the TGI in the test with TK-10 renal, in the test with CAKI-1 renal, in the test on SK-MEL-5 melanoma and in the test with OVCAR-5 ovarian was more than 100 µM each time.

Take `C/C(=C/CO[Si](C)(C)C(C)(C)C)C(=O)N(C)c1ccccc1I`: the TGI with U251 CNS is 28.6 µM; in the test on PC-3 prostate, 27 µM; in the test with SK-OV-3 ovarian it was 35.5 µM; in the test on SK-MEL-28 melanoma, 35.7 µM; in the test on SF-539 CNS, 32.3 µM; in the test on A498 renal, 31 µM. Further, the TGI with TK-10 renal amounted to 33.3 µM; in the test with CAKI-1 renal, 29.9 µM; in the test with SK-MEL-5 melanoma, 29 µM; with OVCAR-5 ovarian it was 27.8 µM.

`O=C1/C(=C/c2ccccc2)CCc2ccc(Cl)nc21`: the TGI with U251 CNS amounted to 16 µM; in the test on PC-3 prostate, 29.9 µM; in the test on SK-OV-3 ovarian it was 73 µM; in the test on SK-MEL-28 melanoma, 39.6 µM; with SF-539 CNS it was 15.4 µM; in the test on A498 renal it was 34.6 µM. For the same molecule, the TGI stood at 32.7 µM with TK-10 renal, 10.3 µM in the test with CAKI-1 renal, 20.1 µM with SK-MEL-5 melanoma and 33.4 µM in the test on OVCAR-5 ovarian.

`CCOC(=O)c1nc2c3c(ncn2n1)Oc1c(c(-c2ccccc2)nn1-c1ccccc1)C3c1ccc(Cl)cc1` (stereo unspecified): the TGI with U251 CNS, with PC-3 prostate, in the test on SK-OV-3 ovarian, in the test with SK-MEL-28 melanoma, with SF-539 CNS and with A498 renal was more than 100 µM each time. Moreover, the TGI in the test with TK-10 renal, in the test with CAKI-1 renal, in the test with SK-MEL-5 melanoma and in the test with OVCAR-5 ovarian was more than 100 µM each time.

Take `COC(=O)C1=C(O)C(C(=O)OC)[C@@]2(O)[C@@H](C(=O)OC)C(c3ccc(OC(=O)/C(=C/c4ccc(Cl)cc4)c4ccc(Cl)cc4)cc3)C[C@@H]1[C@@H]2C(=O)OC` (stereo partly specified): the TGI in the test on U251 CNS was more than 100 µM; with PC-3 prostate, more than 100 µM; with SK-OV-3 ovarian, more than 100 µM; with SK-MEL-28 melanoma, more than 100 µM; with SF-539 CNS, 24.6 µM; in the test on A498 renal, more than 100 µM. Further, the TGI was 73.7 µM in the test with TK-10 renal, 85.9 µM in the test on CAKI-1 renal, more than 100 µM with SK-MEL-5 melanoma and more than 100 µM in the test with OVCAR-5 ovarian.

Regarding `CC(=O)O[C@H]1C#C/C=C\C#CC[C@@H]2C(=O)N(C(=O)OC(C)(C)C)[C@@H]12`, the TGI is more than 78.9 µM in the test with U251 CNS; more than 100 µM with PC-3 prostate; more than 100 µM with SK-OV-3 ovarian; more than 100 µM with SK-MEL-28 melanoma; 18.5 µM with SF-539 CNS; more than 100 µM in the test on A498 renal. Further, the TGI in the test with TK-10 renal was more than 100 µM; with CAKI-1 renal it was more than 54 µM; in the test on SK-MEL-5 melanoma it was more than 100 µM; in the test on OVCAR-5 ovarian, more than 100 µM.

Turning to `COc1ccc(C2(c3ccc(OC)cc3)OC(=O)c3cccc4cccc2c34)cc1`, the TGI is more than 100 µM in the test on U251 CNS; 6.47 µM with PC-3 prostate; more than 100 µM in the test on SK-OV-3 ovarian; 9.63 µM in the test on SF-539 CNS; more than 100 µM with A498 renal; 96.4 µM with TK-10 renal. Moreover, the results for the TGI in the test on CAKI-1 renal, in the test with SK-MEL-5 melanoma and in the test with OVCAR-5 ovarian were 9.87 µM, more than 100 µM and more than 100 µM, respectively.

As for `CCCCC[C@@H]1OCO[C@@]2(C)/C=C(C)/C=C/C(=O)O[C@H]([C@@H](C)[C@@H](O)[C@H](C)[C@@]3(O)C[C@@H](O[C@H]4C[C@@H](O)[C@H](O)[C@@H](C)O4)[C@H](C)[C@@H](C)O3)[C@@H](OC)/C=C/C=C(\C)C[C@@H]1[C@@H]2O` (stereo in doubt), the TGI in the test on U251 CNS amounted to 5.36 µM; in the test with PC-3 prostate, 1.64 µM; in the test on SK-OV-3 ovarian, 5.38 µM; in the test with SK-MEL-28 melanoma it was 1.68 µM; in the test on SF-539 CNS, 3.23 µM; in the test with A498 renal, 0.0829 µM. Besides, the TGI with TK-10 renal was 8.83 µM; in the test with CAKI-1 renal it was 2.69 µM; in the test on SK-MEL-5 melanoma, less than 0.005 µM; with OVCAR-5 ovarian it was 0.215 µM.
